Consider twelve molecules from US6825354B2 (Wyeth Holdings Corporation, priority 1999, dated 2004).

For assay [1], the target named is TNF-α converting enzyme (TACE) (Homo sapiens, UniProt P78536). Briefly: TACE inhibition, fluorescent peptidyl substrate. It is filed as biochemical. How it is done:
[…] The reaction is initiated by addition of a fluorescent peptidyl substrate (final concentration 100 μM) to each well and then shaking on a shaker for 5 sec.
The reaction is read (excitation 340 nm, emission 420 nm) for 10 min. and the increase in fluorescence over time is plotted as a linear line. The slope of the line is calculated and represents the reaction rate.
The mean (x±sem) of the control rate is calculated and compared for statistical significance (p<0.05) with drug-treated rates using Dunnett's multiple comparison test.

For assay [2], the system named is THP-1 cells (soluble TNF-α). The experiment in a line: Human monocytic THP-1 cell differentiation assay for soluble proteins (THP soluble protein assay). Format: cell-based. As to conditions: negative = less TNF-α; for TNFalpha at 3 uM, THP (percent change): percent change from vehicle positive control; for inhibition at 3 µM: Homo sapiens, THP-1, percent change from vehicle positive control, read-out: TNFalpha at 3 uM, THP (percent change). From the text:
Mitogenic stimulation of THP-1 cells cause differentiation into macrophage like cells with concomitant secretion of tumor necrosis factor (TNF-a) and TNF receptor (TNF-R p75/80 and TNF-R p55/60) and Interleukin-8 (IL-8), among other proteins. […] The release of membrane bound TNF-a and possibly TNF-R p75/80 and TNF-R p55/60, but not IL-8, is mediated by an enzyme called TNF-α converting enzyme or TACE.
THP-1 cells (from ATCC) are a human monocytic cell line which were obtained from the peripheral blood of a person with acute monocytic leukemia They can be grown in culture and differentiated into macrophage like cells by stimulation with mitogens.
Each vial of cells are cultured for about two weeks prior to being used for an assay and then are used for only 4 to 6 weeks to screen compounds.
Cell exposure to DMSO was limited to 0.1% final concentration. […] Compounds can be evaluated for their effect on basal (non-stimulated) shedding of the receptors by replacing the LPS with […] of THP-1 media Plates are placed into an incubator set at 5% CO2 and at 37° C. After 4 hours of incubation, […] of tissue culture supernatant (TCS) is removed for use in an TNF-α ELISA. Following 24 hours of incubation, […] of TCS is removed and used for analysis in TNF-R p75/80, TNF-R p55/60 and IL-8 ELISAs.
In addition, at the 24 hours timepoint, and the cells for each treatment group are collected by resuspension in 500 μl/well of THP-1 media and transferred into a FACS tube. […] The samples are run on a Becton Dickinson FaxCaliber FLOW cytometry machine and the amount of dye taken up by each cell is measured in the high red wavelength (FL3). Only cells with compromised membranes (dead or dying) can take up PI. The percent of live cells is calculated by the number of cells not stained with PI, divided by the total number of cells in the sample. The viability values calculated for the drug treated groups were compared to the viability value calculated for the vehicle treated mitogen stimulated group (“vehicle positive control”) to determine the “percent change from control”. This “percent change from control” value is an indicator of drug toxicity.
The quantity of soluble TNF-α, TNF-R p75/80 and TNF-R p55/60 and IL-8 in the TCS of the ThP-1 cell cultures are obtained with commercially available ELISAs from R&D Systems, by extrapolation from a standard curve generated with kit standards. The number of cells that either take up or exclude PI are measured by the FLOW cytometry machine and visualized by histograms using commercially available Cytologic software for each treatment group including all controls.
Biological variability in the magnitude of the response of THP-1 cell cultures requires that experiments be compared on the basis of percent change from “vehicle positive control” for each drug concentration. Percent change in each soluble protein evaluated from the “vehicle positive control” was calculated for each compound concentration with the following formula: [formula]
For the soluble protein (TNF-a, p75/80, p55/60, IL-8) studies under stimulated conditions, the mean pg/ml of duplicate wells were determined and the results expressed as percent change from “vehicle positive control”. For the soluble protein (p75/80 and p55/60 receptors) studies under non-stimulated conditions, the mean pglml of duplicate wells were determined and the results expressed as percent change from “vehicle positive control” utilizing the following formula: [formula]
IC50 values for each compound are calculated by non-linear regression analysis using customized software utilizing the JUMP statistical package.
For the cell viability studies, the viabilities (PI exclusion) of pooled duplicate wells were determined and the results expressed as % change from “vehicle positive control”.

A further assay has as its target MMP-13 (Homo sapiens, UniProt P45452). The experiment in a line: MMP-13 inhibition, thiopeptide or fluorescent peptide substrate. It is filed as biochemical. To be noted: for IC50: read-out: MMP13 IC50; for inhibition at 10 µM: read-out: MMP13 % @ 10 μM. How it is done: (§1) The enzyme activity is measured by the rate of the color increase. The thiopeptide substrate is made up fresh as a 20 mM stock in 100% DMSO and the DTNB is dissolved in 100% DMSO as a 100 mM stock and stored in the dark at room temperature. Both the substrate and DTNB are diluted together to 1 mM with substrate buffer (50 mM HEPES pH 7.5, 5 mM CaCl2) before use. The stock of enzyme is diluted with buffer (50 mM HEPES, pH 7.5, 5 mM CaC12, 0.02% Brij) to the desired final concentration.
(§2) Alternatively, a fluorescent peptide substrate is used. In this test procedure, the peptide substrate contains a fluorescent group and a quenching group. Upon cleavage of the substrate by an MMP, the fluorescence that is generated is quantitated on the fluorescence plate reader. The assay is run in HCBC assay buffer (50 mM HEPES, pH 7.0, 5 mM Ca^+2, 0.02% Brij, 0.5% Cysteine), with human recombinant MMP-1, MMP-9, or MMP-13. The substrate is dissolved in methanol and stored frozen in 1 mM aliquots. For the assay, substrate and enzymes are diluted in HCBC buffer to the desired concentrations. Compounds are added to the 96 well plate containing enzyme and the reaction is started by the addition of substrate.
(§3) For either the thiopeptide or fluorescent peptide test procedures, the slope of the line is calculated and represents the reaction rate. […] The mean (x±sem) of the control rate is calculated and compared for statistical significance (p<0.05) with drug-treated rates using Dunnett's multiple comparison test.

The target in the next assay is T1, MMP-1 (Homo sapiens, UniProt P03956).
T1 sequence (P03956 100-469): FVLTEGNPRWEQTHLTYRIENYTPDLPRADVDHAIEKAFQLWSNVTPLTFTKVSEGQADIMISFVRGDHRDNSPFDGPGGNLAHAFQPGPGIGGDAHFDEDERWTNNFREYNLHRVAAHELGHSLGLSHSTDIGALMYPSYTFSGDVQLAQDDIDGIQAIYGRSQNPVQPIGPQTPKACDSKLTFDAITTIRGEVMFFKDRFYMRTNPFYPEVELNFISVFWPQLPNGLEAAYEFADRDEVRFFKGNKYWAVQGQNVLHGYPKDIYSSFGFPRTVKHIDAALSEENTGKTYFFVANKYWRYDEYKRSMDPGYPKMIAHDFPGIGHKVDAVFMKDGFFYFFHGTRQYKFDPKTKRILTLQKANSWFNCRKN
The experiment in a line: MMP-1 inhibition, thiopeptide or fluorescent peptide substrate. It is filed as biochemical. To be noted: Table 1, second part; for inhibition at 10 µM: read-out: MMP1 % @ 10 μM; for IC50: read-out: MMP1 IC50. As to the method:
as §1, §2, §3

The next assay deals with MMP-9 (Homo sapiens, UniProt P14780). Briefly: MMP-9 inhibition, thiopeptide or fluorescent peptide substrate. Format: biochemical. As to conditions: for inhibition at 10 µM: read-out: MMP9 % @ 10 μM; for IC50: read-out: MMP9 IC50. How it is done:
as §1, §2, §3

Setting [3] is: Table 1, second part, footnote a: IC50 (nM), read-out: TACE IC50.

Read-outs that look alike come from different tables or passages of the source.

Chain of TNF-α converting enzyme (TACE) (P78536 215-824): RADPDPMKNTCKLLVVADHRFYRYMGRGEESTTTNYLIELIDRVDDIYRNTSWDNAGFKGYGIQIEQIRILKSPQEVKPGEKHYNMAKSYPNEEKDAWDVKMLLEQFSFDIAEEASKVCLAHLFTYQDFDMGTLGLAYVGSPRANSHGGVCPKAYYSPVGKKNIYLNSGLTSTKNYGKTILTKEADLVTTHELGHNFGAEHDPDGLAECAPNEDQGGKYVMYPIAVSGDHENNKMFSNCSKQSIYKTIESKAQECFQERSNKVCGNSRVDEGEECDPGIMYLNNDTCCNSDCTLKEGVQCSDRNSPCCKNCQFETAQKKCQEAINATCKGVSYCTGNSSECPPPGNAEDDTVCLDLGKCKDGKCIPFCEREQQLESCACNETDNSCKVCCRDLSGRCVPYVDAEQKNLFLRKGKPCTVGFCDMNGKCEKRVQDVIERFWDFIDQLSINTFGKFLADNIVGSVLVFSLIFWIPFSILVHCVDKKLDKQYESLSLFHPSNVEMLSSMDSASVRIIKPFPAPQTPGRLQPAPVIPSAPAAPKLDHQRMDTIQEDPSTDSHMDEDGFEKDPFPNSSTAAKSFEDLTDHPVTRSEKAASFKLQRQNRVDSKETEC
Chain of MMP-9 (P14780 94-707): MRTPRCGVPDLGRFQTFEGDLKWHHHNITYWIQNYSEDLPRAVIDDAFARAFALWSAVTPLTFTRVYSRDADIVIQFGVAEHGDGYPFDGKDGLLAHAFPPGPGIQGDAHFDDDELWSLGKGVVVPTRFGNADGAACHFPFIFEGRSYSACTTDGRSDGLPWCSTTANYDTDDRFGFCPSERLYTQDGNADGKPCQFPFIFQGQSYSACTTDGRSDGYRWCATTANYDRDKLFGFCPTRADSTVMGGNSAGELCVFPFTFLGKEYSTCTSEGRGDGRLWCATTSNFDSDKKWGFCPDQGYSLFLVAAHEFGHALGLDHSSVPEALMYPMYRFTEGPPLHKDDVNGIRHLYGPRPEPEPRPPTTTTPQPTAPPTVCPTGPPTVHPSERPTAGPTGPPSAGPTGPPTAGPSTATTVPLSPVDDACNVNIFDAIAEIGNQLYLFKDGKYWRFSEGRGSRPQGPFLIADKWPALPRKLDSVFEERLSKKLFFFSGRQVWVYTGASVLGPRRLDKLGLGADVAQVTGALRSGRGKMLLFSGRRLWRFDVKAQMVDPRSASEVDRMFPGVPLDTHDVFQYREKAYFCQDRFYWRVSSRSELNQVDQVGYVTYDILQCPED

Usually IC50 stands for the concentration that inhibits the measured activity by half. As to “2-{[4-(2-butynyloxy)phenyl]sulfonyl}-2-(4-chlorophenyl)-N-hydroxyacetamide [Example 102]”, the half-inhibitory concentration (IC50) in assay [1] (setting [3]) amounted to 82 nM. Further, the “TNFalpha at 3 uM, THP (percent change)” value in assay [2] is listed as −10%. In addition, on MMP-13 (Table 1, second part), the “MMP13 % @ 10 μM” value is on record as 71%. Also, the “MMP1 % @ 10 μM” value on MMP-1 came out at 26%.

As to `CC#CCOc1ccc([S+]([O-])[C@@H](C(=O)NO)c2ccc(OC)cc2)cc1` (single isomer, unassigned) [Example 77], the IC50 in assay [1] worked out at 201 nM; at MMP-13 (Table 1, second part) it was 3690 nM. For the same molecule, in assay [2], the inhibition at 3 µM is 12%. The inhibition at 10 µM on MMP-9 (Table 1, second part) is 45.4%; on MMP-1, 17.5%.

On to `CC#CCOc1ccc([S+]([O-])[C@@H](C(=O)NO)c2ccc(Br)cc2)cc1` (single isomer, unassigned) [Example 87], for which the inhibition at 3 µM in assay [2] was -5%.

With `CC#CCOc1ccc([S+]([O-])C(C(=O)NO)c2ccccc2)cc1` (single isomer, unassigned) [Example 113, S-2-{[4-(2-butynyloxy)phenyl]sulfinyl}-2-phenyl-N-hydroxyacetamide], the IC50 in assay [1] (setting [3]) was 162 nM. The inhibition at 3 µM in assay [2] came to 4%. Moreover, the inhibition at 10 µM on MMP-13 (Table 1, second part) turned out to be 59%; on MMP-9 (Table 1, second part) it was 25.7%; at MMP-1, 6.2%.

Consider `CC#CCOc1ccc(S(=O)(=O)C(CCCCCC)C(=O)NO)cc1` (stereo not drawn) [Example 5, 2-(4-But-2-ynyloxy-benzenelsulfonyl)-octanoic Acid Hydroxamide], for which the IC50 stood at 74.8 nM in assay [1] (Table 1, first part, read-out: TACE IC50); 500 nM on MMP-13 (Table 1, first part); 2500 nM on MMP-9 (Table 1, first part).

With `CC#CCOc1ccc([S+]([O-])C(C(=O)NO)c2cccc3ccccc23)cc1` (stereo not drawn) [Example 93, 2-{[4-(2-Butynyloxy)phenyl]sulfinyl}-N-hydroxy-2-(1-napthyl)acetamide], the “TACE % @ 10 μM” value in assay [1] (Table 1, second part, footnote a: % @ 10 μM) is listed as 15.63%. Also, in assay [2], the “TNFalpha at 3 uM, THP (percent change)” value is 1%. Besides, the “MMP13 % @ 10 μM” value on MMP-13 (Table 1, second part) was found to be 17%. Moreover, the “MMP1 % @ 10 μM” value on MMP-1 turned out to be 7%.

`CC#CCOc1ccc([S+]([O-])C(C(=O)NO)c2ccc(F)cc2)cc1` (stereo not drawn) [Example 96]: in assay [1] (setting [3]), the IC50 worked out at 148 nM. Moreover, in assay [2], the inhibition at 3 µM was found to be 12%. The inhibition at 10 µM at MMP-13 (Table 1, second part) amounted to 53.4%; on MMP-9 (Table 1, second part) it was 0%; on MMP-1, 18.4%.

For `CC#CCOc1ccc(SC(C(=O)NO)c2ccc(OCC)cc2)cc1` (stereo not drawn) [Example 100, 2-{[4-(2-butynyloxy)phenyl]sulfanyl}-N-hydroxy-2-(4-ethoxyphenyl)acetamide], in assay [2], the inhibition at 3 µM is 0%.

Take `CC#CCOc1ccc([S+]([O-])C(C(=O)NO)c2ccc(OCC)cc2)cc1` (stereo not drawn) [Example 101, 2-{[4-(2-Butynyloxy)phenyl]sulfinyl}-N-hydroxy-2-(4-ethoxyphenyl)acetamide]: in assay [2], the inhibition at 3 µM was -1%.

Regarding `CC#CCOc1ccc(SC(C(=O)NO)c2cccc(Br)c2)cc1` (stereo not drawn) [Example 103, 2-{[4-(2-Butynyloxy)phenyl]sulfanyl}-N-hydroxy-2-(3-bromophenyl)acetamide], the inhibition at 3 µM in assay [2] was -15%.

`CC#CCOc1ccc([S+]([O-])[C@@H](C(=O)NO)C(C)C)cc1` (stereo partly drawn) [Example 108, R-2-{[4-(2-butynyloxy)phenyl]sulfinyl}-2-isopropyl-N-hydroxyacetamide]: the “TNFalpha at 3 uM, THP (percent change)” value in assay [2] is recorded as −29%. Also, the IC50 on MMP-9 (Table 1, second part) is 399 nM; at MMP-1, 6480 nM.

On to `CC#CCOc1ccc([S+]([O-])C(C(=O)NO)C(C)C)cc1` (stereo not drawn) [Example 109, S-2-{[4-(2-butynyloxy)phenyl]sulfinyl}-2-isopropyl-N-hydroxyacetamide], for which the “TNFalpha at 3 uM, THP (percent change)” value in assay [2] is on record as −20%. Moreover, the IC50 was 893 nM at MMP-9 (Table 1, second part) and 2990 nM on MMP-1.
